Results: PMC3605511, “Tumor P-Glycoprotein Correlates with Efficacy of PF-3758309 in in vitro and in vivo Models of Colorectal Cancer” (Frontiers in Pharmacology, 2013)

How the values were obtained:
HCT116 = test: Cell proliferation assay, HCT116; assay type: cell-based; settings: Homo sapiens, HCT-116; HCT116, 72 h, SRB assay
Description: (§1) Cytotoxic/proliferation effects were determined using the sulforhodamine B (SRB) assay (Skehan et al., [1990]) or by resazurin. Briefly, cells in logarithmic growth phase were transferred to 96 well flat bottom plates with lids. One-hundred microliter cell suspensions containing 1500–5000 viable cells were plated into each well and incubated overnight prior to exposure with increasing concentrations of PF-309 for 3–5 days, dependent upon cell type. Media was removed and cells were fixed with cold 10% trichloroacetic acid for 30 min at 4°C. Cells were then washed with water and stained with 0.4% SRB (Fisher Sci., Pittsburgh, PA, USA) for 30 min at room temperature, washed again with 1% acetic acid, followed by stain solubilization with 10 mM tris at room temperature. The plate was then read on a plate reader (Biotek Synergy 2, Winooski, VT, USA) set at an absorbance wavelength of 565 nm. Cell proliferation curves were derived from the raw absorbance (OD) data.
(§2) Since PF-309 appeared to be a strong P-gp and BCRP substrates, we sought to evaluate if the transporters influenced sensitivity in vitro. We evaluated the sensitivity of CRC cell lines to PF-309 treatment in a panel of 27 lines. Cells were exposed to PF-309 at a range of concentrations for 72 h and cell content measured by SRB assay (see Pitts et al., [2013]). […]

SW948 = test: Cell proliferation assay, SW948; assay type: cell-based; settings: Homo sapiens; SW948, 72 h, SRB assay
Description: as §1, §2

IC50 (HCT116): 4.7 ± 0.9 nM
IC50 (SW948): > 1000 nM
SMILES: Cc1nc(Nc2n[nH]c3c2CN(C(=O)N[C@H](CN(C)C)c2ccccc2)C3(C)C)c2sccc2n1 [PF-309]
